Experimental findings from patent US20230382894A1, “CCR4 ANTAGONISTS” (CHEMOCENTRYX, INC., priority 2022, published 2023) are described below.

The target of assay [1] is T1, CCR4 (Homo sapiens, UniProt P51679).
T1 construct: CEM Cells Endogenous Express CCR4; endogenous in cells; host or cells: CEM cells
T1 sequence (P51679 1-360): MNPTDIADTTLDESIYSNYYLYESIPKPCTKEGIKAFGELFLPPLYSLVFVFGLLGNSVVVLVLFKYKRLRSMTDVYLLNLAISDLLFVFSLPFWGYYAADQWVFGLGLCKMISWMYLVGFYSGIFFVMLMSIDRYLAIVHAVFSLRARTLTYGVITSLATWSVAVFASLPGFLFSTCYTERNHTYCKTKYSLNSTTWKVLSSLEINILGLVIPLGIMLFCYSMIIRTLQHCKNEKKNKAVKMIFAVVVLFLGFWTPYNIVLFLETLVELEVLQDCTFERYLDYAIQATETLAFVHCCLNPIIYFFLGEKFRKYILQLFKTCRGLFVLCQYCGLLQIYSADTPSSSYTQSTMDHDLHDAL
As to the kind of experiment: CEM cell chemotaxis (migration) assay to CCL22 (MDC) in HBSS buffer with 0.1% BSA. The settings on record: CEM cells in HBSS with 0.1% BSA; recombinant human CCL22 0.1 nM; 37° C. 60 minutes. It counts as cell-based.

Assay [2] addresses T1, CCR4. As to the kind of experiment: CEM cell chemotaxis (migration) assay to CCL22 (MDC) in 100% Fetal Bovine Serum (FBS). It counts as cell-based. As to conditions: CEM cells in 100% FBS with 1% HEPEs; recombinant human CCL22 0.1 nM; 37° C. 60 minutes. The method, boiled down: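 Endogenously CCR4-expressing CEM cells in 100% FBS with 1% HEPES were preincubated with serially diluted compound (top final 10 μM) and allowed to migrate through 5 μm polycarbonate membranes toward 0.1 nM human CCL22 (EC50) for 60 min at 37 °C. Migrated cells were quantified by CyQUANT fluorescence.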

What is called IC50 is the concentration needed to halve the response being measured. Turning to `Cc1nc(N2CCN(C(=O)[C@H]3CCC(=O)N3)CC2)nc(N[C@H](C)c2ccc(Cl)cc2Cl)c1Cl` [Example 1.113], the IC50 on CCR4 [1] and at CCR4 [2] was under 0.1 µM in each case.
With `C[C@@H](Nc1nc(N2CCC(NC(=O)C3CCOCC3)CC2)ncc1Cl)c1ccc(Cl)cc1Cl` [Example 1.130], the figures for the concentration for half-maximal inhibition (IC50) on CCR4 [1] and on CCR4 [2] were 0.1 to 1 µM and over 1 µM, respectively.
Take `C[C@@H](Nc1nc(N2CCC(NC(=O)[C@@H]3CNCCO3)CC2)ncc1Cl)c1ccc(Cl)cc1Cl` [Example 1.131]: the IC50 was 0.1 to 1 µM on CCR4 [1] and over 1 µM at CCR4 [2].
Taken in the same sequence, the figures for `C[C@@H](Nc1nc(N2CCC(N3CC(=O)NC3=O)CC2)ncc1Cl)c1ccc(Cl)cc1Cl` [Example 1.132] were over 1 µM and over 1 µM.
`C[C@@H](Nc1nc(N2CCC(C(=O)N3CC[C@H](O)[C@@H](N(C)C)C3)CC2)ncc1Cl)c1ccc(Cl)cc1Cl` [Example 1.133]: the IC50 on CCR4 [1] was 0.1 to 1 µM; on CCR4 [2], over 1 µM.
The like results for `C[C@@H](Nc1nc(N2CCN(C(=O)[C@H]3CCN(C(N)=O)C3)CC2)ncc1Cl)c1ccc(Cl)cc1Cl` [Example 1.134] were, in that order, under 0.1 µM and under 0.1 µM.
As for `C[C@@H](Nc1nc(N2CCN(C(=O)[C@H]3COCCN3)CC2)ncc1Cl)c1ccc(Cl)cc1Cl` [Example 1.135], the IC50 on CCR4 [1] and on CCR4 [2] was under 0.1 µM each time.
In the case of `C[C@@H](Nc1nc(N2CCC(NC(=O)[C@H]3CC(F)(F)CN3)CC2)ncc1Cl)c1ccc(Cl)cc1Cl` [Example 1.136], the IC50 at CCR4 [1] and on CCR4 [2] was over 1 µM in each case.
As to `C[C@@H](Nc1nc(N2CCN(C(=O)[C@H]3CCC(=O)N3)CC2)ncc1Cl)c1ccc(Cl)cc1Cl` [Example 1.148], the IC50 on CCR4 [1] and at CCR4 [2] was under 0.1 µM throughout.
In the case of `C[C@@H](Nc1nc(N2CCN(C(=O)[C@H]3CCNC3)CC2)ncc1Cl)c1ccc(Cl)cc1Cl` [Example 1.150], the IC50 on CCR4 [1] and at CCR4 [2] was under 0.1 µM each time.
Take `C[C@@H](Nc1nc(N2CCN(C(=O)[C@H]3CCCN3)[C@H](C(=O)O)C2)ncc1Cl)c1ccc(Cl)cc1Cl` [Example 1.151]: the half-maximal inhibitory concentration (IC50) at CCR4 [1] and at CCR4 [2] was under 0.1 µM throughout.
Take `C[C@@H](Nc1nc(N2CCN(C(=O)[C@H]3CCCN3C3CC(C)(C(=O)O)C3)CC2)ncc1Cl)c1ccc(Cl)cc1Cl` (some centres unmarked) [Example 1.152]: the IC50 is 0.1 to 1 µM at CCR4 [1] and over 1 µM at CCR4 [2].
As for `C[C@@H](Nc1nc(N2CCN(C3CN[C@H](C(=O)O)C3)CC2)ncc1Cl)c1ccc(Cl)cc1Cl` (some centres unmarked) [Example 1.153], the IC50 at CCR4 [1] and on CCR4 [2] was over 1 µM in each case.
Turning to `C[C@@H](Nc1nc(N2CCN(C(=O)[C@@H]3NC(=O)[C@@H]4C[C@@H]43)CC2)ncc1Cl)c1ccc(Cl)cc1Cl` [Example 1.251], the IC50 at CCR4 [1] and at CCR4 [2] was under 0.1 µM in each case.
Regarding `C[C@H](Nc1nc(N2CCN(C(=O)[C@H]3CCC(=O)N3)CC2)ncc1Cl)c1ccc(Cl)cc1Cl` [Example 1.252], the IC50 at CCR4 [1] and on CCR4 [2] was over 1 µM in each case.
For the compound `C[C@H](Nc1nc(N2CCN(C(=O)[C@@H]3CCC(=O)N3)CC2)ncc1Cl)c1ccc(Cl)cc1Cl` [Example 1.253], the IC50 on CCR4 [1] and on CCR4 [2] was over 1 µM throughout.
As for `C[C@@H](Nc1nc(N2CC[C@H](NC(=O)[C@@H]3CCC(=O)N3)[C@@H](O)C2)ncc1Cl)c1ccc(Cl)cc1Cl` [Example 1.254], the values for the IC50 on CCR4 [1] and on CCR4 [2] were over 1 µM and under 0.1 µM, respectively.
Consider `C[C@@H](Nc1nc(N2CCN(C(=O)[C@H]3CCC(=O)N3)CC2)ncc1Cl)c1ccccn1` [Example 1.256], for which the IC50 at CCR4 [1] and on CCR4 [2] was over 1 µM in each case.
Take `Cc1nc(N2CCN(C(=O)[C@H]3CCC(=O)N3)CC2)nc(N[C@H](C)c2cc(F)c(Cl)cc2Cl)c1Cl` [Example 1.258]: the IC50 at CCR4 [1] and at CCR4 [2] was under 0.1 µM each time.
